Drawing on patent publication US20030225081A1, “Pyridazinones and triazinones and medicinal use thereof” (priority 2000, published 2003), this text covers IC50 for 35 compounds.

The experiment concerns AMPA receptor. As to the kind of experiment: Suppressing action to calcium influx into nerve cells induced by AMPA. Type of experiment: cell-based. The settings on record: Fura2-AM, stimulation with 2 μM AMPA, primary culture of rat embryo cerebral cortex nerve cells, 1 μM MK-801. The source says: Suppressing Action to Calcium Influx into Nerve Cells Induced by AMPA
The suppressing action of the compounds of the present invention to calcium influx into nerve cells induced by AMPA was investigated using the primary culture system of nerve cells of cerebral cortex of embryo of rat.
Cerebral cortex was cut out from the brain of rat of gestational 18 days and treated with trypsin and DNase to disperse the cells. The cells were flown by MEM containing 10% of serum, sown in a culture bottle and astrocytes were proliferated. The astrocytes were re-dispersed by trypsin and sown in a 96-well plate. After incubation for one week, it was confirmed that the astrocytes covered all over the bottom and then the nerve cells of cerebral cortex which was dispersed by the above method were sown thereupon. After incubation for 24 hours, the medium was changed, the incubation was carried out for one week and, after that, the medium was changed to that containing 1 μM of MK-801. Nerve cells which were incubated for not shorter than 8 to 10 days were used.
Calcium influx into the cells was measured using Fura2-AM which was a calcium-sensitive fluorescent dye. It was treated in a medium containing Fura2-AM for 1 hour, incorporated into the cells, exchanged to a Tyrode solution containing 1 μM MK-801 and stimulation was carried out using 2 μM AMPA. Change in the amount of calcium flown into the cells were measured as the change in the fluorescent intensity at the exciting wave length of 340/380 nm. […] As the control compound, GYKI52466 (Le Peillet, et al., Brain Res., 571, 115, 1992) was used.

Consider `N#Cc1ncccc1-n1nc(-c2ccccn2)cc(-c2ccccc2)c1=O` [Example 80B, 2-(2-Cyanopyridin-3-yl)-4-phenyl-6-(2-pyridyl)-3 (2H)-pyridazinone], for which the IC50 – broadly, the point on the concentration scale where inhibition reaches its midpoint – came to 200 nM. With `COc1ccccc1C1=NN(c2ccccc2Br)C(=O)N(c2ccccn2)C1` [Example 92, 2-(2-Bromophenyl)-6-(2-methoxyphenyl)-4-(2-pyridyl)-4,5-dihydro-1,2,4-triazin-3 (2H)-one] the figure was 100 nM; with `N#Cc1ccccc1-c1cc(-c2ccccn2)nn(-c2ccccc2C#N)c1=O` [Example 46, 2-(2-Cyanophenyl)-4-(2-cyanophenyl)-6-(2-pyridyl)-3 (2H)-pyridazinone], 300 nM. With `N#Cc1ccccc1N1N=C2c3ccccc3OCC2C(c2cccnc2)C1=O` (centres unmarked) [Example 49, 2-(2-Cyanophenyl)-4-(3-pyridyl)-2,3,4,4a-tetrahydro-5H-(1) benzopyrano[4,3-c]pyridazin-3-one] the figure was 70 nM; with `COc1cccc(-c2cc(-c3ccccn3)nn(-c3ccccc3Br)c2=O)c1` [Example 52, 2-(2-Bromophenyl)-4-(3-methoxyphenyl)-6-(2-pyridyl)-3 (2H)-pyridazinone], 200 nM; with `COc1ccccc1C1CC(c2ccccn2)=NN(c2ccccn2)C1=O` (centres unmarked) [Example 22, 4-(2-Methoxyphenyl)-2-(2-pyridyl)-6-(2-pyridyl)-4,5-dihydro-3 (2H)-pyridazinone], 2700 nM. With `O=c1c(-c2cccnc2)cc(-c2ccccn2)nn1-c1ccccc1[N+](=O)[O-]` [Example 63, 2-(2-Nitrophenyl)-4-(3-pyridyl)-6-(2-pyridyl)-3 (2H)-pyridazinone] the figure was 300 nM; with `O=c1c(-c2cccnc2)cc(-c2ccccn2)nn1-c1ccccc1Br` [Example 61, 2-(2-Bromophenyl)-4-(3-pyridyl)-6-(2-pyridyl)-3 (2H)-pyridazinone], 300 nM; with `COc1ccc(Br)cc1-c1cc(-c2ccccn2)nn(-c2ccccc2C#N)c1=O` [Example 44, 2-(2-Cyanophenyl)-4-(3-bromo-6-methoxyphenyl)-6-(2-pyridyl)-3 (2H)-pyridazinone], 200 nM.

For the compound `COc1ccccc1N1N=C(c2ccccn2)CC(c2cccnc2)C1=O` (centres unmarked) [Example 76, 2-(2-Methoxyphenyl)-4-(3-pyridyl)-6-(2-pyridyl)-4,5-dihydro-3 (2H)-pyridazinone], the IC50 amounted to 6200 nM. For `N#Cc1ccccc1N1N=C(c2ccccn2)CN(c2ccccc2O)C1=O` [Example 96, 2-(2-Cyanophenyl)-4-(2-hydroxyphenyl)-6-(2-pyridyl)-4,5-dihydro-1,2,4-triazin-3 (2H)-one], the IC50 was determined as 600 nM. In the case of `O=c1c(-c2cccnc2)c2c(nn1-c1ccccc1Br)-c1ccccc1OC2` [Example 57, 2-(2-Bromophenyl)-4-(3-pyridyl)-2,3-dihydro-5H-(1)benzopyrano[4,3-c]pyridazine-3-one] it was 200 nM.

`O=C1C(c2ccccc2Br)CC(c2ccccn2)=NN1c1ccccc1` (centres unmarked) [Example 25, 4-(2-Bromophenyl)-2-phenyl-6-(2-pyridyl)-4,5-dihydro-3 (2H)-pyridazinone]: the IC50 came to 200 nM. With `O=C1C(c2ccccc2)CC(c2ccccc2)=NN1c1ccccn1` (centres unmarked) [Example 21, 4,6-Diphenyl-2-(2-pyridyl)-4,5-dihydro-3 (2H)-pyridazinone] the figure was 500 nM; with `O=C1C(c2cccnc2)C2COc3ccccc3C2=NN1c1ccccc1Br` (centres unmarked) [Example 50, 2-(2-Bromophenyl)-4-(3-pyridyl)-2,3,4,4a-tetrahydro-5H-(1)benzopyrano[4,3-c]pyridazin-3-one], 100 nM; with `O=c1c(-c2ccccn2)cc(-c2ccccc2O)nn1-c1ccccc1Br` [Example 31, 2-(2-Bromophenyl)-6-(2-hydroxyphenyl)-4-(2-pyridyl)-3 (2H)-pyridazinone], 900 nM. With `N#Cc1ccccc1-n1nc2c(c(-c3ccccc3)c1=O)COc1ccc(F)cc1-2` [Example 54, 2-(2-Cyanophenyl)-9-fluoro-4-phenyl-2,3-dihydro-5H-(1)benzopyrano[4,3-c]pyridazin-3-one] the figure was 100 nM. In the case of `N#Cc1ccccc1-n1nc2c(c(-c3ccccc3)c1=O)C(O)Oc1ccc(F)cc1-2` (centres unmarked) [Example 53, 2-(2-Cyanophenyl)-9-fluoro-5-hydroxy-4-phenyl-2,3-dihydro-5H-(1)benzopyrano[4,3-c]pyridazin-3-one] it was 500 nM.

Regarding `O=c1c(-c2ccccc2)cc(-c2ccccn2)nn1-c1ccc[n+]([O-])c1` [Example 79, 2-(3-Pyridin-1-oxide)-4-phenyl-6-(2-pyridyl)-3 (2H)-pyridazinone], the IC50 was 7200 nM. In the case of `COc1ccc(Br)cc1C1CC(c2ccccn2)=NN(c2ccccc2Br)C1=O` (centres unmarked) [Example 16, 2-(2-Bromophenyl)-4-(3-bromo-6-methoxyphenyl)-6-(2-pyridyl)-4,5-dihydro-3 (2H)-pyridazinone] it was 700 nM; in that of `N#Cc1ncccc1-n1nc(-c2ncccn2)cc(-c2ccccc2)c1=O` [Example 81B, 2-(2-Cyanopyridin-3-yl)-4-phenyl-6-(2-pyrimidinyl)-3 (2H)-pyridazinone], 700 nM. For the compound `N#Cc1ccccc1N1N=C2c3ccccc3OCC2C(c2ccccc2)C1=O` (centres unmarked) [Example 6, 2-(2-Cyanophenyl)-4-phenyl-2,3,4,4a-tetrahydro-5H-(1)benzopyrano[4,3-c]pyridazin-3-one], the IC50 stood at 100 nM. For `O=C(NCCN1CCOCC1)c1cc(-c2ccccc2)nn(-c2ccccc2Cl)c1=O` [Example 62, 2-(2-Chlorophenyl)-4-(4-morpholinoethylaminocarbonyl)-6-phenyl-3 (2H)-pyridazinone], the IC50 turned out to be 4000 nM. In the case of `O=Cc1cccc(N2CC(c3ccccn3)=NN(c3ccccc3Br)C2=O)c1` [Example 123, 2-(2-Bromophenyl)-4-(3-formylphenyl)-6-(2-pyridyl)-4,5-dihydro-1,2,4-triazin-3 (2H)-one] it was 300 nM. In the case of `O=C1C(c2cccc(O)c2)CC(c2ccccn2)=NN1c1ccccc1Br` (centres unmarked) [Example 2, 2-(2-Bromophenyl)-4-(3-hydroxyphenyl)-6-(2-pyridyl)-4,5-dihydro-3 (2H)-pyridazinone] it was 100 nM.

For the compound `O=c1c(-c2cccc(OCc3ccccn3)c2)cc(-c2ccccn2)nn1-c1ccccc1Br` [Example 37, 2-(2-Bromophenyl)-4-[3-(2-picolyloxyphenyl)]-6-(2-pyridyl)-3 (2H)-pyridazinone], the IC50 worked out at 100 nM. In the case of `O=C1N(c2ccccc2)CC(c2ncccn2)=NN1c1ccccc1` [Example 119, 2-Phenyl-4-phenyl-6-(2-pyrimidinyl)-4,5-dihydro-1,2,4-triazin-3 (2H)-one] it was 4300 nM; in that of `O=C1C(c2ccccc2)CC(c2ccccn2)=NN1c1ccccc1[N+](=O)[O-]` (centres unmarked) [Example 27, 4-Phenyl-2-(2-nitrophenyl)-6-(2-pyridyl)-4,5-dihydro-3 (2H)-pyridazinone], 40 nM; in that of `COc1ccccc1N1CC(c2ccccn2)=NN(c2ccccc2Br)C1=O` [Example 85, 2-(2-Bromophenyl)-4-(2-methoxyphenyl)-6-(2-pyridyl)-4,5-dihydro-1,2,4-triazin-3 (2H)-one], 200 nM. On to `O=c1c(-c2cccnc2)cc(-c2ccccn2)nn1-c1ccsc1` [Example 73, 2-(Thiophen-3-yl)-4-(3-pyridyl)-6-(2-pyridyl)-3 (2H)-pyridazinone], for which the IC50 is 1100 nM. In the case of `N#Cc1ccccc1N1CC(c2ccccn2)=NN(c2ccccc2)C1=O` [Example 104, 4-(2-Cyanophenyl)-2-phenyl-6-(2-pyridyl)-4,5-dihydro-1,2,4-triazin-3 (2H)-one] it was 500 nM; in that of `O=C1C(c2ccc(O)cc2)CC(c2ccccn2)=NN1c1ccccc1Br` (centres unmarked) [Example 30, 2-(2-Bromophenyl)-4-(4-hydroxyphenyl)-6-(2-pyridyl)-4,5-dihydro-3 (2H)-pyridazinone], 200 nM.

Consider `N#Cc1ccccc1-n1nc(-c2ccccn2)cc(-c2ccccc2)c1=O` [Example 43, 2-(2-Cyanophenyl)-4-phenyl-6-(2-pyridyl)-3 (2H)-pyridazinone], for which the IC50 is 100 nM.

`O=C1N(c2ccccn2)CC(c2ccccn2)=NN1c1ccccc1Br` [Example 118, 2-(2-Bromophenyl)-6-(2-pyridyl)-4-(2-pyridyl)-4,5-dihydro-1,2,4-triazin-3 (2H)-one]: the concentration for half-maximal inhibition (IC50) is 30 nM. With `O=C1N(c2ccsc2)CC(c2ccccn2)=NN1c1ccccc1` [Example 105, 2-Phenyl-6-(2-pyridyl)-4-(thiophen-3-yl)-4,5-dihydro-1,2,4-triazin-3 (2H)-one] the figure was 200 nM.
